Data on 16 molecules can be found in ChEMBL document CHEMBL5726611, “Factor XIA inhibitors” (2019).

What is called Ki is a measure of affinity in units of concentration, obtained from inhibition or displacement.

The target in the assay is Coagulation factor XI (Homo sapiens, UniProt P03951). The assay can be described thus: Factor XIa Assay: The effectiveness of a compound of the present invention as an inhibitor of Coagulation Factor XIa can be determined using a relevant purified serine protease, and an appropriate synthetic substrate. The rate of hydrolysis of the chromogenic or fluorogenic substrate by the relevant serine protease was measured both in the absence and presence of compounds of the present invention. Assays were conducted at rt or at 37° C. […] A decrease in the rate of fluorescence change in the presence of inhibitor is indicative of enzyme inhibition. Such methods are known to one skilled in the art. […] Times required to achieve equilibration between enzyme and inhibitor were determined in control experiments. Initial velocities of product formation in the absence (Vo) or presence of inhibitor (Vi) were measured. Assuming competitive inhibition, and that unity is negligible compared Km/[S], [I]/e, and [I]/e (where [S], [I], and e respectively represent the total concentrations, of substrate, inhibitor and enzyme), the equilibrium constant (Ki) for dissociation of the inhibitor from the enzyme can be obtained from the dependence of Vo/Vi on [I] shown in the following equation.
Sequence of Coagulation factor XI (P03951 19-387 limits assumed): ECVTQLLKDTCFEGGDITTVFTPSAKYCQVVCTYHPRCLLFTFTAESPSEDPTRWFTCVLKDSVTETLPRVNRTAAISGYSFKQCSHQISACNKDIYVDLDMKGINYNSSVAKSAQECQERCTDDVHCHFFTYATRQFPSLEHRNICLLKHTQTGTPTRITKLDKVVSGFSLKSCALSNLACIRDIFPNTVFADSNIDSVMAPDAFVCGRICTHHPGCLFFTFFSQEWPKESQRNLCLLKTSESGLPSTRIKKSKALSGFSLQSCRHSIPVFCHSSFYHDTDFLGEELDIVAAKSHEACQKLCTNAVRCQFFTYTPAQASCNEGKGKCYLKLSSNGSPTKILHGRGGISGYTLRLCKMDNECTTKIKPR
Sequence of Coagulation factor XI (P03951 388-625 limits assumed): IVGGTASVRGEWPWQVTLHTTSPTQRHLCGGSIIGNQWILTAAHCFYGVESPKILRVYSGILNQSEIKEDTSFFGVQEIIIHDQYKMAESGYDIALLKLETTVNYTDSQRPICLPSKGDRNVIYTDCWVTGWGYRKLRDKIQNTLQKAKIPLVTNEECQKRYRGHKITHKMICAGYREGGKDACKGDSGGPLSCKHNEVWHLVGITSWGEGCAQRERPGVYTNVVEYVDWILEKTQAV
With `COC(=O)Nc1ccc2c(c1)NC(=O)CCCCC(c1ccc(-c3c(F)cccc3OC(F)F)cn1)c1cccc-2c1` (stereo unspecified), the Ki is greater than 875 nM.

As to `COC(=O)Nc1ccc2c(c1)NC(=O)CCCCC(c1ccc(-c3cc(Cl)ccc3-n3cc(C(F)F)nn3)cn1)c1cccc-2c1` (stereo unspecified), the Ki turned out to be 9.2 nM.

Turning to `COC(=O)Nc1ccc2c(c1)NC(=O)CCCCC(c1ccc(-c3cc(Cl)ccc3-n3cc(C#N)cn3)cn1)c1cccc-2c1` (stereo unspecified), the inhibition constant (Ki) came out at 211 nM.

With `COC(=O)Nc1ccc2c(c1)NC(=O)CCCCC(c1ccc(-c3cc(Cl)ccc3C(F)(F)F)cn1)c1cccc-2c1` (stereo unspecified), the Ki is greater than 875 nM.

With `COC(=O)Nc1ccc2c(c1)NC(=O)CCCCC(c1ccc(-c3cc(Cl)ccc3OC(F)F)cn1)c1cccc-2c1` (stereo unspecified), the Ki was found to be 181 nM.

In the case of `COC(=O)Nc1ccc2c(c1)NC(=O)CCCCC(c1ccc(-c3cc(Cl)ccc3OC(F)(F)F)cn1)c1cccc-2c1` (stereo unspecified), the inhibition constant Ki turned out to be 399 nM.

Take `COC(=O)Nc1ccc2c(c1)NC(=O)CCCCC(c1ccc(-c3cc(Cl)ccc3-n3cc(C4CC4)nn3)cn1)c1cccc-2c1` (stereo unspecified): the Ki turned out to be 137 nM.

Take `COC(=O)Nc1ccc2c(c1)NC(=O)CCCCC(c1ccc(-c3c(-n4cc(C(F)(F)F)nn4)ccc(Cl)c3F)cn1)c1cccc-2c1` (stereo unspecified): the Ki is 2.02 nM.

Turning to `COC(=O)Nc1ccc2c(c1)NC(=O)CCCCC(c1ccc(-c3cc(Cl)ccc3-n3cc(C(F)(F)F)nn3)cn1)c1cccc-2c1` (stereo unspecified), the Ki was found to be 18.3 nM.

As to `COC(=O)Nc1ccc2c(c1)NC(=O)CCCCC(c1ccc(-c3cc(Cl)ccc3-c3cnco3)cn1)c1cccc-2c1` (stereo unspecified), the inhibition constant Ki came to 259 nM.

Turning to `COC(=O)Nc1ccc2c(c1)NC(=O)CCCCC(c1ccc(-c3cc(Cl)ccc3-n3cc(Cl)nn3)cn1)c1cccc-2c1` (stereo unspecified), the Ki came out at 12 nM.

In the case of `COC(=O)Nc1ccc2c(c1)NC(=O)CCCCC(c1ccc(-c3cc(Cl)ccc3-n3cc(C(F)(F)F)cn3)cn1)c1cccc-2c1` (stereo unspecified), the Ki is 708 nM.

For `COC(=O)Nc1ccc2c(c1)NC(=O)CCCCC(c1ccc(-c3cc(Cl)ccc3C#N)cn1)c1cccc-2c1` (stereo unspecified), the Ki stood at 41 nM.

Consider `COC(=O)Nc1ccc2c(c1)NC(=O)CCCCC(c1ccc(-c3cc(Cl)ccc3-c3cnn(C(F)F)c3)cn1)c1cccc-2c1` (stereo unspecified), for which the Ki came to 640 nM.

As for `COC(=O)Nc1ccc2c(c1)NC(=O)CCCCC(c1ccc(-c3c(-n4cnnn4)ccc(Cl)c3F)cn1)c1cccc-2c1` (stereo unspecified), the inhibition constant Ki came to 0.24 nM.

As for `COC(=O)Nc1ccc2c(c1)NC(=O)CCCCC(c1ccc(-c3cc(F)ccc3-n3cnnn3)cn1)c1cccc-2c1` (stereo unspecified), the Ki was 7 nM.
